Assay [1] is described as follows: Activity of superoxide dismutase mimetic toward hydrogen peroxide (selectivity). In kind it is biochemical.
For assay [2] the following is noted: combination with interleukin-2; Samlowski et al., Nature Medicine (2003); cited from earlier work.
For assay [3], the system named is CT26 mouse colon tumor. As to the kind of experiment: Mouse colon tumor model, first experiment (CT26 fragments implanted in BALB/c mice). In kind it is in vivo. Particulars: SOD mimetic 6 mg/kg IP twice daily from day 6, combined with gemcitabine 80 mg/kg IP on days 6, 9, 12, 15; compared with gemcitabine alone. As to the method:
A. In a first experiment, fragments of CT26 mouse colon tumor were implanted in female BALB/c mice and allowed to grow for 6 days to a size of about 110 mg (107-115 mg).
On this day, day 6, mice were administered 6 mg/kg of KM4403 or KM4419 intraperitoneally (IP) and dosing was continued twice daily for the duration of the study.
In some groups, gemcitabine was administered on days 6, 9, 12 and 15 at a dosage of 80 mg/kg, also via IP, 10 minutes after the administration of KM4403 or KM4419.

Assay [4] has as its system C26 colon tumor. The assay is described as follows: Mouse colon tumor model, second experiment (C26 fragments implanted in BALB/c mice). Particulars: KM4419 10 mg/kg or 20 mg/kg twice daily from day 7, combined with gemcitabine 120 mg/kg IP on days 7, 13, 16, both KM4419 dosage levels, FIG. 1. In kind it is in vivo. As to the method:
B. In a second experiment, fragments of C26 colon tumor were implanted in female BALB/c mice and grown until day 7 at which point they averaged 123 mg.
Groups 1 and 2 (n=8) were given 10 mg/kg or 20 mg/kg of KM4419 twice daily starting at day 7.
In groups 3 and 4 (n=8), gemcitabine was administered at 120 mg/kg or 160 mg/kg IP on days 7, 13 and 16.
In groups 5 and 6 (n=8), both gemcitabine and KM4419 were administered according to the foregoing regimens. Gemcitabine was administered 10 minutes after KM4419 in these groups. The levels of KM4419 were 10 mg/kg and 20 mg/kg, respectively, and the dose of gemcitabine was 120 mg/kg.

Assay [5] deals with human A549 non-small lung carcinoma cells. As to the kind of experiment: Non-small cell lung cancer tumor model (A549 cells implanted into flanks of BALB/c mice). In kind it is in vivo. The conditions noted are these: KM4419 30 mg/kg IP on days 9-23, combined with paclitaxel 12.5 mg/kg IP on days 9 and 13; compared with either drug alone; FIG. 2. As to the method: In a manner similar to that of Example 1, human A549 non-small lung carcinoma cells were implanted into the flanks of female BALB/c mice, and the tumors were allowed to grow until day 9. Group 1 was administered only vehicle. Group 2 (n=10) was administered only paclitaxel at 12.5 mg/kg IP on days 9 and 13. In group 3 (n=10), the mice were administered 30 mg/kg of KM4419 IP on days 9-23. In group 4 (n=10), a combination of these protocols was administered.

For the molecule `CC(C)c1cc(C(=O)O)c([O-])c(C(C)C)c1.CC(C)c1cc(C(=O)O)c([O-])c(C(C)C)c1.[Cu+2]` [CuDIPS, copper [II] diisopropylsalicylate], the “activity toward hydrogen peroxide” value in assay [1] was “significant activity”.

As for `[Cl][Mn-5]1234([Cl])[n+]5c6cccc5C[NH+]1[C@@H]1CCCC[C@H]1[NH+]2CC[NH+]3[C@@H]1CCCC[C@H]1[NH+]4C6` (stereo partly drawn) [KM4403], the “antitumor effect of IL-2 in combination treatment” value in assay [2] is recorded as “potentiates the antitumor effect of IL-2”. Besides, the tumor size result in assay [3] is given as “decreased tumor size”.

On to `[Cl][Mn-5]1234([Cl])[n+]5c6cccc5C[NH+]1[C@H]1CCCC[C@@H]1[NH+]2CC[NH+]3[C@H]1CCCC[C@@H]1[NH+]4C6` (stereo partly drawn) [KM4419], for which the tumor recurrence entry in assay [4] is reported as “delayed recurrence”. The results for the tumor size entry in assay [4] (compared with gemcitabine alone) and in assay [3] were “decreased the tumor size more effectively than gemcitabine alone” and “decreased tumor size”, respectively. Besides, the “effectiveness on tumor growth” value in assay [5] was “more effective than either drug taken alone”.

For mangafodipir, the “activity toward hydrogen peroxide” value in assay [1] is on record as “significant activity”.

In the case of “manganese [III] tetrakis-(5,10,15,20)-benzoic acid porphyrin [MnTBAP]”, the “activity toward hydrogen peroxide” value in assay [1] was “significant activity”.

(Values after patent US9198893B2, “Combination antitumor therapy” (GALERA LABS, LLC, priority 2008, dated 2015).)
